Values quoted from earlier work in paper PMC4610388 (European journal of medicinal chemistry, 2015).

What was measured:
[1] = tested on: mammalian dihydrofolate reductases
[2] = molecular target: E. coli DHFR (Escherichia coli, UniProt P0ABQ4); details: previous study from the authors' lab
Sequence of E. coli DHFR (P0ABQ4 whole entry): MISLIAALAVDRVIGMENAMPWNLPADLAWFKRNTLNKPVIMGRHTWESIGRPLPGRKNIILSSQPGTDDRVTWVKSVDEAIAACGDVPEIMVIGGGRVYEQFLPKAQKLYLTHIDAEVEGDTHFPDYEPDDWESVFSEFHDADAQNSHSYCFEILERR

| Compound | inhibition of mammalian dihydrofolate reductases [1] | slow-onset tight binding behaviour [2] |
| --- | --- | --- |
| Nc1nnc(-c2cccc(Cl)c2Cl)c(N)n1 [Lamotrigine, 6-(2,3-dichlorophenyl)-1,2,4-triazine-3,5-diamine] | weakly inhibit |  |
| Nc1nc(N)c2c(ccc3[nH]ccc32)n1 [NSC339578, 7H–pyrrolo [3,2-f] quinazoline-1,3-diamine] |  | does not show slow-onset of inhibition |
